For this assay, the target named is T1, recombinant human Meningioma Expressed Antigen 5 (MGEA5), also referred to as O-GlcNAcase (OGA) (Homo sapiens, UniProt O60502).
T1 construct: Full length OGA enzyme was purchased at OriGene (cat #TP322411); purchased OriGene TP322411
T1 sequence (O60502 1-916): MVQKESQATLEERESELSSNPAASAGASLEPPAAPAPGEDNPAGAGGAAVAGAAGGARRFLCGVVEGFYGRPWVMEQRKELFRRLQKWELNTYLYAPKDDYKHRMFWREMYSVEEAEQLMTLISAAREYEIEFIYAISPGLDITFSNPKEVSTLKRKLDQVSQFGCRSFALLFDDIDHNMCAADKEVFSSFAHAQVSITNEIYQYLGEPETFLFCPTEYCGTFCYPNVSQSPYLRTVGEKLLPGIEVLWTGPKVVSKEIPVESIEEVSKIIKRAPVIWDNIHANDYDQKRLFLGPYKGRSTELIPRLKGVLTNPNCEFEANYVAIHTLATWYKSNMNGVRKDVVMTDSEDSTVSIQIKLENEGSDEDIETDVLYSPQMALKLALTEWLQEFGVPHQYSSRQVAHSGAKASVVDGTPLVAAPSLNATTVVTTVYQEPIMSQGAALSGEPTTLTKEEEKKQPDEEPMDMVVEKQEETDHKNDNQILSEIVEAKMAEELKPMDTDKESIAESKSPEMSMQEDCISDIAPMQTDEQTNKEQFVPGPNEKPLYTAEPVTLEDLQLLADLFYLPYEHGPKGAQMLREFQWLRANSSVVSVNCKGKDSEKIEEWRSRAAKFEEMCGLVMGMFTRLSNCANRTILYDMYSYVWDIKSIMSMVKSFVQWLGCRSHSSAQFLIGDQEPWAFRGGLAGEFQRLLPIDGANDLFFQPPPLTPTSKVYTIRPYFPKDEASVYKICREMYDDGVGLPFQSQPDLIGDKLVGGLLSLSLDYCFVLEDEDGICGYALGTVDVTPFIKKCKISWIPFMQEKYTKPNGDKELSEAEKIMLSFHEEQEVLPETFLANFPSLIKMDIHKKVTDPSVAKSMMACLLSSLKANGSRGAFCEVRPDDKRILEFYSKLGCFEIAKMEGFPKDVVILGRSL
The experiment in a line: OGA biochemical assay (inhibition of FM-GlcNAc hydrolysis, fluorescence). The settings on record: FM-GlcNAc substrate; for IC50: 6 h at room temperature, read-out: Enzymatic hOGA, pIC50 (converted); for Emax: read-out: Enzymatic Emax (%). The text has this: The assay is based on the inhibition of the hydrolysis of fluorescein mono-β-D-N-Acetyl-Glucosamine (FM-GlcNAc) (Mariappa et al. 2015, Biochem J 470:255) by the recombinant human Meningioma Expressed Antigen 5 (MGEA5), also referred to as O-GlcNAcase (OGA). The hydrolysis FM-GlcNAc (Marker Gene technologies, cat #M1485) results in the formation of β-D-N-glucosamineacetate and fluorescein. The fluorescence of the latter can be measured at excitation wavelength 485 nm and emission wavelength 538 nm. An increase in enzyme activity results in an increase in fluorescence signal. Full length OGA enzyme was purchased at OriGene (cat #TP322411). The enzyme was stored in 25 mM Tris.HCl, pH 7.3, 100 mM glycine, 10% glycerol at −20° C. Thiamet G and GlcNAcStatin were tested as reference compounds (Yuzwa et al. 2008 Nature Chemical Biology 4:483; Yuzwa et al. 2012 Nature Chemical Biology 8:393). The assay was performed in 200 mM Citrate/phosphate buffer supplemented with 0.005% Tween-20. 35.6 g Na2HPO4 2H2O (Sigma, #C0759) were dissolved in 1 L water to obtain a 200 mM solution. 19.2 g citric acid (Merck, #1.06580) was dissolved in 1 L water to obtain a 100 mM solution. pH of the sodiumphosphate solution was adjusted with the citric acid solution to 7.2. The buffer to stop the reaction consists of a 500 mM Carbonate buffer, pH 11.0. 734 mg FM-GlcNAc were dissolved in 5.48 mL DMSO to obtain a 250 mM solution and was stored at −20° C. OGA was used at a 2 nM concentration and FM-GlcNAc at a 100 uM final concentration. Dilutions were prepared in assay buffer.
50 nl of a compound dissolved in DMSO was dispensed on Black Proxiplate™ 384 Plus Assay plates (Perkin Elmer, #6008269) and 3 μl fl-OGA enzyme mix added subsequently. Plates were pre-incubated for 60 min at room temperature and then 2 μl FM-GlcNAc substrate mix added. […] Plates were briefly centrifuged for 1 min at 1000 rpm and incubate at room temperature for 6 h. To stop the reaction 5 μl STOP buffer were added and plates centrifuge again 1 min at 1000 rpm. Fluorescence was quantified in the Thermo Scientific Fluoroskan Ascent or the PerkinElmer EnVision with excitation wavelength 485 nm and emission wavelength 538 nm.
For analysis a best-fit curve is fitted by a minimum sum of squares method. From this an IC50 value and Hill coefficient was obtained. High control (no inhibitor) and low control (saturating concentrations of standard inhibitor) were used to define the minimum and maximum values.

Some results are limits rather than exact numbers.

The source of these data is patent publication US20210115040A1, “OGA INHIBITOR COMPOUNDS” (Janssen Pharmaceutica NV, priority 2018, published 2021).

Usually Emax stands for the greatest response seen or fitted, relative to the assay's reference. With `Cc1cc(C[C@H]2CCCN([C@@H](C)c3ccc4oc(C)nc4n3)C2)cc(C(F)(F)F)n1` [Compound 24b], the IC50 was 5010 nM. Also, for the setting “maximal effect”, the Emax was 69%. `Cc1cc(C[C@H]2CCCN([C@@H](C)c3ccc4cn(C)nc4n3)C2)cc(C)n1` (relative stereo) [Compound 12a]: the IC50 is 1580 nM. For the setting “maximal effect”, the maximal effect (Emax) amounted to 88%.

In the case of `Cc1cc(C[C@H]2CCCN(Cc3ccc4cn(C)nc4c3)C2)cc(C)n1` [Compound 17], the IC50 is 794 nM. For the same compound, under “maximal effect”, the Emax turned out to be 90%. Take `COc1cc(OC2CCCN(C(C)c3ccc4sc(C)nc4n3)C2)cc(C)n1` (centres unmarked) [Compound 41]: the IC50 was 126 nM. In addition, where the note is “maximal effect”, the Emax came out at 101%. Take `Cc1cc(OC[C@@H]2CCCN(C(C)c3ccc4sc(C)nc4n3)C2)cc(C)n1` (mixture of isomers) [Compound 45ab]: the IC50 was 316 nM. Besides, the Emax (maximal effect) stood at 98%. Consider `Cc1cc(C2CCCN(C(C)c3cc4nc(C)oc4cc3F)C2)cc(C)n1` (racemic) [Compound 32], for which the IC50 was 7.94 nM. For the same compound, under “maximal effect”, the Emax came out at 99%.

On to `COc1cc(C2CCCN(C(C)c3cnc4[nH]c(C)nc4c3)C2)cc(C)n1` (centres unmarked) [Compound 2], for which the IC50 is 200 nM. The Emax (maximal effect) is 97%. Turning to `Cc1cc(C[C@H]2CCCN(C(C)c3ccc4sc(C)nc4n3)C2)cc(C)n1` (single isomer, unassigned) [Compound 42a], the IC50 was 501 nM. Moreover, where the note is “maximal effect”, the Emax was determined as 98%. Consider `Cc1cc(C[C@H]2CCCN(C(C)c3cnc4[nH]c(C)nc4c3)C2)cc(C)n1` (single isomer, unassigned) [Compound 6b], for which the IC50 was 7.94 nM. For the same compound, the “Enzymatic Emax (%)” value (maximal effect) turned out to be 100%. With `Cc1cc(C[C@H]2CCN(C(C)c3ccc4nc(C)sc4c3)C2)cc(C)n1` (some centres unmarked) [Compound 56], the IC50 is more than 10000 nM. For the same compound, the Emax (maximal effect) was found to be 41%. With `Cc1cc(C[C@H]2CCN([C@@H](C)c3ccc4oc(C)nc4n3)C2)cc(C)n1` [Compound 27a], the IC50 was 200 nM. Where the note is “maximal effect”, the Emax came to 99%. For the compound `Cc1cc(C[C@H]2CCCN(Cc3ccc4nc(C)sc4c3)C2)cc(C)n1` [Compound 53], the IC50 was 3980 nM. Under “maximal effect”, the Emax is 77%.

On to `Cc1cc(C[C@H]2CCN(C(C)c3ccc4oc(C)nc4n3)C2)cc(C(F)(F)F)n1` (mixture of isomers) [Compound 29], for which the IC50 is 126 nM. For the same compound, the Emax (maximal effect) was 103%. For the compound `Cc1cc(C[C@H]2CCCN([C@H](C)c3ccc4cn(C)nc4n3)C2)cc(C)n1` (relative stereo) [Compound 12b], the IC50 was 15.8 nM. In addition, under “maximal effect”, the Emax is 100%. Take `COc1cc(O[C@@H]2CCN([C@@H](C)c3ccc4oc(C)nc4n3)C2)cc(C)n1` [Compound 21a]: the IC50 was more than 10000 nM. The Emax (maximal effect) stood at 22%.

`Cc1nc2nc(C(C)N3CC[C@H](Cc4cc(F)cc(F)n4)C3)ccc2o1` (some centres unmarked) [Compound 79]: the IC50 was 158 nM. Moreover, the Emax (maximal effect) came out at 99%. `Cc1cc(C[C@@H]2CCN(C(C)c3ccc4oc(C)nc4n3)C2)cc(C)n1` (mixture of isomers) [Compound 26]: the IC50 was 39.8 nM. Moreover, the Emax (maximal effect) came out at 101%. In the same order, the values of `COc1cc(C[C@@H]2CCN(C(C)c3ccc4sc(C)nc4n3)C2)cc(C)n1` (mixture of isomers) [Compound 44] are 126 nM and 99%. For the compound `Cc1cc(C[C@H]2CCCN(Cc3ccc4[nH]c(C)nc4c3)C2)cc(C)n1` [Compound 10], the IC50 is 1000 nM. Moreover, the Emax (maximal effect) turned out to be 89%. `Cc1cc(OC[C@H]2CCCN([C@@H](C)c3ccc4sc(C)nc4n3)C2)cc(C)n1` [Compound 46a]: the IC50 was 631 nM. The Emax (maximal effect) stood at 96%. For the compound `Cc1cc(C[C@H]2CCN(C(C)c3ccc4nc(C)sc4c3)C2)cc(C)n1` (single isomer, unassigned) [Compound 57], the IC50 is more than 10000 nM. Moreover, for the setting “maximal effect”, the maximal effect (Emax) was 28%. Turning to `Cc1cc(C[C@H]2CCN([C@H](C)c3ccc4oc(C)nc4n3)C2)cc(C)n1` [Compound 27b], the IC50 is more than 10000 nM. The maximal response (Emax) (maximal effect) came out at 47%.

Regarding `Cc1cc(C[C@H]2CCCN(Cc3ccc4oc(C)nc4n3)C2)cc(C)n1` [Compound 36], the IC50 was 63.1 nM. In addition, for the setting “maximal effect”, the Emax came out at 101%. As to `Cc1cc(OC2CCCN(C(C)c3ccc4[nH]c(C)nc4n3)C2)cc(C(F)(F)F)n1` (centres unmarked) [Compound 5], the IC50 was 794 nM. In addition, the Emax (maximal effect) worked out at 94%. `COc1cc([C@H]2CCCN([C@@H](C)c3cnc4[nH]c(C)nc4c3)C2)cc(C(F)(F)F)n1` [Compound 4b]: the IC50 was 501 nM. For the same compound, for the setting “maximal effect”, the Emax is 96%.

Take `Cc1cc(C[C@@H]2CCN(C(C)c3cc4nc(C)oc4cc3F)C2)cc(C)n1` (mixture of isomers) [Compound 33ab]: the IC50 was 20 nM. Besides, the maximal effect (Emax) (maximal effect) came out at 99%. The like results for `Cc1cc(C[C@H]2CCCN(C(C)c3ccc4occc4n3)C2)cc(C)n1` (mixture of isomers) [Compound 38] were, in that order, 126 nM and 100%.

As for `Cc1cc(C[C@@H]2CCN([C@@H](C)c3cc4nc(C)oc4cc3F)C2)cc(C)n1` (relative stereo) [Compound 33b], the IC50 was 63.1 nM. Moreover, under “maximal effect”, the Emax came to 101%. In the same order, the values of `COc1cc(O[C@@H]2CCN(C(C)c3ccc4oc(C)nc4n3)C2)cc(C)n1` (mixture of isomers) [Compound 21ab] are 251 nM and 97%. As for `Cc1cc(C[C@@H]2CCN(C(C)c3cnc4[nH]c(C)nc4c3)C2)cc(C)n1` (mixture of isomers) [Compound 7], the IC50 was 50.1 nM. Besides, the Emax (maximal effect) turned out to be 100%. For the compound `COc1cc([C@H]2CCCN([C@H](C)c3cnc4[nH]c(C)nc4c3)C2)cc(C(F)(F)F)n1` [Compound 4a], the Emax (maximal effect) was determined as 50%.

Consider `Cc1cc(C[C@@H]2CCN([C@H](C)c3cc4nc(C)oc4cc3F)C2)cc(C)n1` (relative stereo) [Compound 33a], for which the IC50 is 2.51 nM. Besides, the Emax (maximal effect) stood at 100%.

`Cc1cc(C2CCCN(C(C)c3cnc4[nH]c(C)nc4c3)C2)cc(C(F)(F)F)n1` (centres unmarked) [Compound 3]: the IC50 was 316 nM. Moreover, where the note is “maximal effect”, the Emax worked out at 96%. With `Cc1cc(OC[C@H]2CCCN(C(C)c3cc4nc(C)oc4cc3F)C2)cc(C)n1` (mixture of isomers) [Compound 34], the IC50 was 10 nM. For the same compound, where the note is “maximal effect”, the Emax came out at 101%. As for `Cc1cc(C2CCCN(C(C)c3cnc4[nH]c(C)nc4c3)C2)cc(C)n1` (centres unmarked) [Compound 1], the IC50 is 316 nM. For the same compound, the Emax (maximal effect) amounted to 98%. `COc1cc(C[C@@H]2CCN(C(C)c3ccc4oc(C)nc4n3)C2)cc(C)n1` (mixture of isomers) [Compound 28]: the IC50 is 100 nM. The Emax (maximal effect) was 99%.
